Laboratory results from the NIST ThermoML archive (doi:10.1021/je400184t).

Test: excess molar enthalpy (molar enthalpy of mixing); xn = mol fraction of the nth substance listed
Conditions: 298.15 K, 101 kPa, Liquid, Calvet calorimetry

Cc1ccccc1 [toluene] + CCCCCCC
Conditions	excess molar enthalpy [kJ/mol]
x2 = 0.00901	0.023
x2 = 0.02172	0.057
x2 = 0.04198	0.106
x2 = 0.06142	0.15
x2 = 0.08009	0.191
x2 = 0.09803	0.226
x2 = 0.1153	0.26
x2 = 0.1319	0.289
x2 = 0.1479	0.317
x2 = 0.1633	0.341
x2 = 0.1782	0.364
x2 = 0.1925	0.384
x2 = 0.2064	0.402
x2 = 0.2198	0.418
x2 = 0.2327	0.433
x2 = 0.2452	0.448
x2 = 0.2574	0.461
x2 = 0.2691	0.472
x2 = 0.2805	0.483
x2 = 0.2915	0.492
x2 = 0.3022	0.501
x2 = 0.3125	0.508
x2 = 0.3226	0.516
x2 = 0.3324	0.522
x2 = 0.3419	0.527
x2 = 0.3511	0.532
x2 = 0.3601	0.536
x2 = 0.3688	0.54
x2 = 0.3773	0.544
x2 = 0.3856	0.547
x2 = 0.3883	0.548
x2 = 0.3909	0.548
x2 = 0.3935	0.549
x2 = 0.3961	0.55
x2 = 0.3987	0.551
x2 = 0.4012	0.551
x2 = 0.4038	0.552
x2 = 0.4063	0.552
x2 = 0.4088	0.553
x2 = 0.4112	0.554
x2 = 0.4137	0.554
x2 = 0.4161	0.554
x2 = 0.4185	0.555
x2 = 0.4209	0.555
x2 = 0.4232	0.556
x2 = 0.4256	0.556
x2 = 0.4279	0.556
x2 = 0.4302	0.557
x2 = 0.4325	0.557
x2 = 0.4348	0.557
x2 = 0.4382	0.557
x2 = 0.4415	0.558
x2 = 0.4449	0.558
x2 = 0.4481	0.558
x2 = 0.4514	0.558
x2 = 0.4546	0.558
x2 = 0.4578	0.558
x2 = 0.4609	0.558
x2 = 0.464	0.558
x2 = 0.4671	0.558
x2 = 0.4701	0.557
x2 = 0.4731	0.557
x2 = 0.476	0.557
x2 = 0.479	0.557
x2 = 0.4819	0.556
x2 = 0.4847	0.556
x2 = 0.4875	0.556
x2 = 0.4903	0.555
x2 = 0.4931	0.555
x2 = 0.4959	0.554
x2 = 0.4995	0.553
x2 = 0.503	0.553
x2 = 0.5066	0.552
x2 = 0.51	0.552
x2 = 0.5134	0.551
x2 = 0.5168	0.55
x2 = 0.5202	0.549
x2 = 0.5234	0.548
x2 = 0.5267	0.547
x2 = 0.5299	0.546
x2 = 0.533	0.545
x2 = 0.5361	0.544
x2 = 0.5392	0.543
x2 = 0.5422	0.542
x2 = 0.5452	0.541
x2 = 0.5482	0.54
x2 = 0.5511	0.539
x2 = 0.5539	0.538
x2 = 0.5568	0.537
x2 = 0.5589	0.536
x2 = 0.5609	0.535
x2 = 0.563	0.534
x2 = 0.565	0.533
x2 = 0.5671	0.532
x2 = 0.5691	0.531
x2 = 0.571	0.53
x2 = 0.573	0.529
x2 = 0.5749	0.528
x2 = 0.5769	0.527
x2 = 0.5788	0.527
x2 = 0.5807	0.526
x2 = 0.5826	0.525
x2 = 0.5844	0.524
x2 = 0.5863	0.523
x2 = 0.5881	0.522
x2 = 0.5899	0.521
x2 = 0.5917	0.52
x2 = 0.5935	0.519
x2 = 0.5952	0.518
x2 = 0.597	0.517
x2 = 0.5987	0.516
x2 = 0.6004	0.515
x2 = 0.6021	0.514
x2 = 0.6038	0.513
x2 = 0.6055	0.512
x2 = 0.6071	0.511
x2 = 0.6088	0.51
x2 = 0.6148	0.507
x2 = 0.6209	0.502
x2 = 0.6271	0.498
x2 = 0.6335	0.493
x2 = 0.64	0.488
x2 = 0.6466	0.484
x2 = 0.6534	0.478
x2 = 0.6603	0.473
x2 = 0.6673	0.467
x2 = 0.6745	0.461
x2 = 0.6819	0.454
x2 = 0.6894	0.447
x2 = 0.6971	0.44
x2 = 0.705	0.433
x2 = 0.713	0.424
x2 = 0.7212	0.416
x2 = 0.7297	0.408
x2 = 0.7383	0.398
x2 = 0.7471	0.388
x2 = 0.7562	0.378
x2 = 0.7623	0.371
x2 = 0.7685	0.364
x2 = 0.7748	0.356
x2 = 0.7812	0.348
x2 = 0.7877	0.34
x2 = 0.7943	0.33
x2 = 0.801	0.322
x2 = 0.8079	0.312
x2 = 0.8148	0.303
x2 = 0.8219	0.294
x2 = 0.8291	0.284
x2 = 0.8365	0.274
x2 = 0.8439	0.263
x2 = 0.8515	0.252
x2 = 0.8592	0.24
x2 = 0.8671	0.228
x2 = 0.8752	0.216
x2 = 0.8833	0.203
x2 = 0.8917	0.189
x2 = 0.9002	0.175
x2 = 0.9088	0.161
x2 = 0.9176	0.147
x2 = 0.9266	0.132
x2 = 0.9358	0.116
x2 = 0.9434	0.103
x2 = 0.9511	0.09
x2 = 0.9589	0.077
x2 = 0.9668	0.063
x2 = 0.9749	0.048
x2 = 0.9831	0.033
x2 = 0.9915	0.016
